Experimental data as given in ChEMBL document CHEMBL3507680, “University of Dundee, Gates Library screen for HepG2 cell viability”.

Test: Human HepG2 cell viability assay in 384 well format
Type: toxicity, cell-based
Design: dose 125 nL, time 70.5 hour; concentration not given beside the values
Details: HepG2 cells, read-out: Inhibition

| Compound | cytotoxicity at 70.5 h [%] |
| --- | --- |
| CCOc1ccc(C(=O)N2CCCC(c3nccn3C)C2)cc1OCC (stereo unspecified) | -5.34 |
| CCc1nn(C)c(Cl)c1CN1C[C@@H](NC(=O)N(C)C)[C@H](C(C)C)C1 | -5.68 |
| COc1ccc(F)c(F)c1CN1CC(=O)N(c2ccccc2C)CC1C (stereo unspecified) | -11.4 |
| Cc1cc2[nH]c(CN3CCOC(C(F)(F)F)C3)cc(=O)n2n1 (stereo unspecified) | 17.8 |
| Cc1cc2nc(C(C)C)cc(NC(C)c3nncn3C3CCCC3)n2n1 (stereo unspecified) | -11.7 |
| COc1cccc2c1OCCCN(c1nc(C)nc3c1CCNCC3)C2 | -5.98 |
| O=C(NCC1=CCCCC1)C(c1cccnc1)N1CCCC1 (stereo unspecified) | 31.3 |
| CCn1c(C2CCN(C(=O)c3cc(C4CC4)on3)CC2)nn(C)c1=O | -6.56 |
| CCc1nc2c(c(NC3CC3)n1)CCN(C(=O)N1CCN(C)CC1)CC2 | -19.1 |
| Cc1cccc2c(CCNC(=O)[C@H](N)c3ccccc3)c[nH]c12 | -17.6 |
| Cc1cc(-n2nc(C3CC3)nc2-c2csnn2)ccn1 | -10.1 |
| CC(C)(O)CCc1ccc(C(=O)NCCC2CCCOC2)cc1 (stereo unspecified) | -0.926 |
| CN(Cc1n[nH]c2c1CCCCC2)C(=O)c1cc(-c2cccn2C)n[nH]1 | -5.14 |
| NC(=O)NCCC(=O)N1CCC(c2cc(Cc3ccccc3)n[nH]2)CC1 | -6.87 |
| CC1=C(C(=O)NCCc2n[nH]c3c2CCCC3)C(C)NC(=O)N1 (stereo unspecified) | 14.6 |
| O=C(NC1CCCN(CCCc2ccccc2)C1)C1=CCCCC1 (stereo unspecified) | -0.678 |
| CN(C)CCC1CCCCN1Cc1cnc(-c2ccccn2)nc1 (stereo unspecified) | -3.63 |
| Cc1ncsc1C(=O)N1CCn2nc(CN3CCSCC3)cc2C1 | -1.17 |
| c1ccc(CCN2CCN(c3ncnc4[nH]ccc34)CC2)cc1 | -3.03 |
| CC(C)CCN1CC2(CCCN(C(=O)CNC(=O)N(C)C)C2)CCC1=O (stereo unspecified) | -10.1 |
| CC(C)=CCN1CCN(Cc2cc(C)n[nH]2)CC1CCO (stereo unspecified) | 4.87 |
| CCC(=O)N1Cc2nnc(C3CCOCC3)n2C(Cc2c[nH]cn2)C1 (stereo unspecified) | -7.01 |
| c1ccc2sc(N3CCN(c4ncnc5c4CCC5)CC3)nc2c1 | 13.8 |

| Compound | cytotoxicity at 70.5 h [%] |
| --- | --- |
| COCCN(C)C(=O)c1ccccc1-n1cccn1 | 5.05 |
| COC(=O)N1CCCCC1C(=O)N1CCCN(c2ccnc(C)c2)CC1 (stereo unspecified) | -7.79 |
| COc1cc(-c2nccn2C(C)CCn2cccn2)cc2c1OCO2 (stereo unspecified) | 1.97 |
| Cc1cc(NCCSc2nccn2C)n2nc(C)c(C)c2n1 | -4.55 |
| O=c1cc(CN2CCCCC2c2cccc(F)c2)[nH]c2ncnn12 (stereo unspecified) | -10.8 |
| O=c1c2cccc(Cl)c2ncn1C1CCNC1 (stereo unspecified) | -10.4 |
| CSCCC(O)C(=O)N1CCCN(Cc2ccc(F)cc2)CC1 (stereo unspecified) | 8.69 |
| Cc1cccc2[nH]c(C3CCCN(Cc4ccccc4C(=O)O)C3)nc12 (stereo unspecified) | 8.18 |
| c1ccc(CN(Cc2cccc3cnccc23)CC2CCCO2)nc1 (stereo unspecified) | -7.22 |
| C[C@@H]1CN(CCC(=O)N(C)Cc2ccccc2)C[C@@]1(O)C1CCC1 | -7.64 |
| CN(Cc1cccnc1)c1nccc(N2CCN[C@H]3CS(=O)(=O)C[C@H]32)n1 | -3.96 |
| COc1cccc(N2CCN(Cc3ccc4ccn(C)c4c3)CC2=O)c1 | -5.61 |
| CN(C)C(C(=O)N1CC(c2ccccn2)C1)c1ccc2c(c1)OCO2 (stereo unspecified) | -3.16 |
| COc1ccccc1OCc1cc(C(=O)N2CCOCC2CO)n[nH]1 (stereo unspecified) | -5.23 |
| COc1cc(Oc2cnc3ccccc3n2)ccc1CN1CCCC1 | -3.39 |
| CC(=O)N1C[C@H]2CNC[C@@]2(C(=O)NCCCOc2cccnc2)C1 | 20 |
| C[C@@H]1CN(S(=O)(=O)N2CCCC2)CC[C@@]1(O)C1CCOCC1 | -14 |
| N#Cc1c(N)nc2c(c1-c1c[nH]nc1C1CCCCC1)CNCC2 | 18.5 |
| O=c1cc(N2CCOCC2)cnn1CCc1ccc(F)cc1 | -1.15 |
| CCC(=O)c1ccc(OCC(=O)N(C)C(C)c2ccon2)cc1 (stereo unspecified) | -13.2 |
| O=C1NCCCC[C@@H]1Nc1ccc(-c2nc(C3CC3)no2)cn1 | -2.61 |
| C=Cc1ccc(C(=O)NC2CCCc3nc(N(C)C)ncc32)cc1 (stereo unspecified) | 16.1 |
| Cc1cccc(-c2nc3cc(S(=O)(=O)N4CCCC4)ccc3n2C)n1 | -10.3 |

| Compound | cytotoxicity at 70.5 h [%] |
| --- | --- |
| Cn1nc(C2CC2)c2c1NC(=O)CC2c1ccc(CN2CCCCC2)s1 (stereo unspecified) | -3.05 |
| COc1ccc(-c2ccnc(N)c2)c(C)c1 | -15.9 |
| CS(=O)(=O)N1CCc2[nH]cnc2C12CCN(C(=O)c1cccnc1)CC2 | -0.221 |
| O=S1(=O)C[C@@H]2[C@H](C1)N(Cc1ncc[nH]1)CCN2Cc1cccnc1 | -3.77 |
| CC(C)CCn1cc(C(C(=O)O)N2CCCN(C3CCCC3)CC2)cn1 (stereo unspecified) | -9.63 |
| Cc1ccsc1CN1CCC(n2cc(C(O)c3ccccc3)nn2)CC1 (stereo unspecified) | -8.81 |
| CCNc1ncc(C(=O)NCc2ccc(F)c(C(F)(F)F)c2)cn1 | 20.6 |
| CCc1nc(NCCc2c(C)nn(CC)c2C)c2cnn(C)c2n1 | -9.28 |
| Cc1nnc(SCC(=O)NCC(c2ccccc2Cl)N(C)C)s1 (stereo unspecified) | -7.07 |
| Cn1cc(CN2CCC(CCC(=O)NCc3ccc(F)cc3)CC2)cn1 | 4.72 |
| Cc1ccc(CN2CCN(c3ncccc3C(N)=O)CC2CCO)cc1 (stereo unspecified) | -2.3 |
| CCn1cc(CN2CCC(N3CCC(O)CC3)CC2)cc1C#N | -5.22 |
| Fc1ccc(Cn2ncc3c2CN(c2noc(C4CC4)n2)C3)cc1 | -3.43 |
| O=C(O)C1(Oc2ccccc2)CCN(c2ccncc2)CC1 | -2.23 |
| CN(C)[C@H]1CCCCN(C(=O)c2cccc(-c3cccc(F)c3)c2)C1 | -4.14 |
| CC(=O)Nc1ccc(CNC(=O)CNCc2nnc(C)o2)cc1 | 2.3 |
| CCNC(=O)[C@@H]1C[C@H](N)CN1C1CCN(c2ccccc2OC)CC1 | -3.8 |
| CC(=O)c1ccc(C(=O)N2CCC(c3cc(O)nc(C)n3)CC2)s1 | -10.9 |
| CCc1nccc(CN2CCC(CNC(=O)c3occc3C)C2)n1 (stereo unspecified) | -5.76 |
| CCn1nc(C)cc1S(=O)(=O)N1CCC2(CC(=O)NC2=O)C1 (stereo unspecified) | -5.01 |
| CCc1cc(CN(Cc2cccnc2)C2CN3CCC2CC3)on1 (stereo unspecified) | 24.6 |
| CCn1cnnc1CN(C)c1nccc(C2CCCC2)n1 | -7.13 |
| Cc1nc(CCCNC(=O)c2coc(CN3CCOCC3)c2)sc1C | -0.625 |

| Compound | cytotoxicity at 70.5 h [%] |
| --- | --- |
| CC(=O)c1cc(CN2C[C@@H](CN3CCC(O)CC3)[C@@H](CO)C2)n(C)c1 | 0.0676 |
| O=C(c1cc(COc2ccc3c(c2)OCO3)[nH]n1)N1CCCO1 | -2.52 |
| Cc1ccccc1OC1CCN(C(=O)CNC(=O)N(C)C)CC1 | -15.2 |
| O=C1NCCCc2[nH]c(-c3nc(C4CC4)no3)nc21 | -3.92 |
| COc1nc2ccccc2cc1CN1CCC(CNS(C)(=O)=O)C1 (stereo unspecified) | 0.512 |
| CC(C)CN1CCCn2nc(CNC(=O)Cc3cccc(O)c3)cc2C1 | -9.37 |
| Cc1cc2[nH]cc(C(=O)N3CCCCC3c3ccc(F)cc3)c(=O)n2n1 (stereo unspecified) | -3.07 |
| CCc1ccc(C2c3nc[nH]c3CCN2Cc2nccn2CC)nc1 (stereo unspecified) | 33.1 |
| COCCc1noc(CN2C(=O)OC[C@@H]2C(C)C)n1 | 2.12 |
| CCCc1cc(=O)[nH]c(-c2cccc(CN3CCN4CCCC4C3)c2)n1 (stereo unspecified) | -6.97 |
| O=C(NCC(F)F)c1ccc(S(=O)(=O)NCCc2cn[nH]c2)cc1 | -8.61 |
| COc1ccccc1N1CC(NC(=O)c2cc(C(C)C)nn2C)CC1=O (stereo unspecified) | 12.6 |
| Cc1ccccc1N1CCN(C(=O)CCc2nncn2C)C(C)C1 (stereo unspecified) | -1.67 |
| CCN(CCc1nc2cc(C)ccc2[nH]1)C(=O)[C@@H](N)COC | 10 |
| NCC(=O)N1CCCCC1c1ccc(F)cc1 (stereo unspecified) | -2.07 |
| NCCn1cc(C(=O)N2CCNC(=O)C2c2cccc(F)c2)nn1 (stereo unspecified) | -11.9 |
| CCc1[nH]c2c(CNc3cncc(C(=O)N(C)C)n3)cc(C)cc2c1C | 27.8 |
| CNc1nc(C(=O)N2CCN(c3cc(C)nc(C)c3)CC2)cs1 | -9.69 |
| COc1ccc([C@@H]2CN(C(=O)Cc3cccs3)C[C@H]2NC(C)=O)cc1 | -4.36 |
| NC1CCN(C2CCN(c3ccc(-c4ccco4)cc3)CC2)CC1 | -12 |
| O=C(NCc1cc2ccccc2s1)c1cc(CN2CCCC(O)C2)on1 (stereo unspecified) | -3.19 |
| O=C(CCC(F)(F)F)N1CCCC(CO)(CC2CC2)C1 (stereo unspecified) | -8.1 |
| Cc1ccc(-c2ccnc(NC(C)c3n[nH]c(C)n3)n2)c(C)n1 (stereo unspecified) | -9.42 |

| Compound | cytotoxicity at 70.5 h [%] |
| --- | --- |
| O=C1NC(C(=O)NCc2cccnc2Oc2ccc(F)cc2F)CO1 (stereo unspecified) | -18.3 |
| CCC(CC)CN1CCCn2nc(CNC(=O)COC)cc2C1 | -10.4 |
| O=C(Nc1ccccc1)c1cc2n(n1)CCCN(C(=O)c1ccc[nH]1)C2 | 14.9 |
| O=C(NCCc1c[nH]cn1)c1ccc(S(=O)(=O)NC2CCOC2)cc1 (stereo unspecified) | -0.712 |
| CC(C)(C)n1cc(C2=CCN(CCc3ccccn3)CC2)cn1 | -5.94 |
| CN(Cc1noc2c1CCCC2)C(=O)CN1C(=O)COc2ccccc21 | -6.93 |
| Cc1cc2cc(C(=O)N3CCN(CCO)[C@@H]4CS(=O)(=O)C[C@@H]43)ccc2o1 | 19.6 |
| OCCNc1cc(-c2nccnc2N2CCCC2)c2cc[nH]c2n1 | 34 |
| CN(c1ncccc1CNCc1ncc[nH]1)C1CCCCC1 | -13.1 |
| Cc1ccc(C(C(=O)N2CC(c3ccccn3)C2)N(C)C)cc1 (stereo unspecified) | 13 |
| COCCN1C(=O)[C@H]2CC[C@@H]1CN(C(=O)Cc1ccc(O)c(Cl)c1)C2 | 16.7 |
| Cc1nn2c(NCC(=O)NC3CC3)cc(-c3ccccc3)nc2c1C | -2.36 |
| O=C(c1cc[nH]n1)N1CCc2ncnc(N3CCSCC3)c2CC1 | 10.4 |
| Cc1ccc(Cl)c(C(C(=O)O)N(C)Cc2cnn(C)c2)c1 (stereo unspecified) | 5.66 |
| Cc1ccccc1-n1cc(C2=CCN(CCn3cc[nH]c3=O)CC2)cn1 | -6.71 |
| Cn1ccc2c(-c3ccc(NC4CC4)nn3)ccnc21 | -5.5 |
| c1ccc(Oc2ncccc2CNCc2ccccn2)cc1 | -4.5 |
| CSc1ccc(-n2ccnc2-c2cc3n(n2)CCNC3)cc1 | 25.5 |
| Cc1nn(C)cc1Cn1c(=O)cnc2ccccc21 | -19.1 |
